Assay results: US11033539B2, “Compounds of formulas (VII), (VIII), (IX), (XI), (XII), (XIII), and (XIV) as muscarinic receptor 4(M4) antagonists for treating neurological diseases” (Neurocrine Biosciences, Inc., priority 2015, dated 2021)
Like-named read-outs stand apart in the source and are kept apart here.

Key:
human M1 receptor = human M1 receptor (Homo sapiens (Human), UniProt P11229); assay: Radioligand (tritiated N-methylscopolamine) binding assay, M1
Procedure, shortened: (§1)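 Membranes from CHO cells expressing the receptor were incubated with 1.5 nM radioligand and twelve compound concentrations (10 μM to […]) for 90 min at 37 °C in 50 mM HEPES, 100 mM NaCl, 5 mM MgCl2, 1 mM EDTA, pH 7.4. Bound radioligand was collected by filtration and counted, and Ki was derived from inhibition.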

human M2 receptor = human M2 receptor (Homo sapiens (Human), UniProt P08172); assay: Radioligand (tritiated N-methylscopolamine) binding assay, M2
Procedure, shortened: as §1

human M3 receptor = human M3 receptor (Homo sapiens (Human), UniProt P20309); assay: Radioligand (tritiated N-methylscopolamine) binding assay, M3; details: CHO cell membranes expressing human M3; 1.5 nM tritiated N-methylscopolamine; 90 min, 37° C.; read-out: Ki against M3 receptor (Table 21, M3)
Procedure, shortened: as §1

human M4 receptor = human M4 receptor (Homo sapiens (Human), UniProt P08173); assay: Radioligand (tritiated N-methylscopolamine) binding assay, M4; details: Ki against the M4 receptor; membranes from CHO cells expressing human M4; tritiated N-methylscopolamine 1.5 nM; read-out: Ki
Procedure, shortened: as §1

human M5 receptor = human M5 receptor (Homo sapiens (Human), UniProt P08912); assay: Radioligand (tritiated N-methylscopolamine) binding assay, M5
Procedure, shortened: as §1

[1] = CHO cell membranes expressing human M1, 1.5 nM tritiated N-methylscopolamine, 90 min, 37° C., read-out: Ki against M1 receptor (Table 21, M1)
[2] = CHO cell membranes expressing human M2, 1.5 nM tritiated N-methylscopolamine, 90 min, 37° C., read-out: Ki against M2 receptor (Table 21, M2)
[3] = CHO cell membranes expressing human M5, 1.5 nM tritiated N-methylscopolamine, 90 min, 37° C., read-out: Ki against M5 receptor (Table 21, M5)

human M3 receptor, sequence (P20309 whole entry): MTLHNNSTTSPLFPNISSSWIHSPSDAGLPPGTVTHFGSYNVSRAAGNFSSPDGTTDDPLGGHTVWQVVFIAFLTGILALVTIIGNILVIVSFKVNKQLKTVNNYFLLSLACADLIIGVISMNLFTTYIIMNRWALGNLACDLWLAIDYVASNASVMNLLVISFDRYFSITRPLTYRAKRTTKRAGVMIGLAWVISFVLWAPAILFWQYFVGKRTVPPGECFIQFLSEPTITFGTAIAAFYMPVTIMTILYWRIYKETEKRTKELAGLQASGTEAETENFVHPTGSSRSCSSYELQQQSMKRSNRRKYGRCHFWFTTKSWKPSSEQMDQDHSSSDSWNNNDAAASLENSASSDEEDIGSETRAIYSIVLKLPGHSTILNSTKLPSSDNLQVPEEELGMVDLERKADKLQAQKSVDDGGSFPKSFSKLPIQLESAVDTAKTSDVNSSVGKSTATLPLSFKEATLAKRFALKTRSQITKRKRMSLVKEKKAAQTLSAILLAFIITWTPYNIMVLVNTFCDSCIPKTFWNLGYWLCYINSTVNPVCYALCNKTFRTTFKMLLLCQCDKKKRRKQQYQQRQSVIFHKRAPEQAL
human M5 receptor, sequence (P08912 whole entry): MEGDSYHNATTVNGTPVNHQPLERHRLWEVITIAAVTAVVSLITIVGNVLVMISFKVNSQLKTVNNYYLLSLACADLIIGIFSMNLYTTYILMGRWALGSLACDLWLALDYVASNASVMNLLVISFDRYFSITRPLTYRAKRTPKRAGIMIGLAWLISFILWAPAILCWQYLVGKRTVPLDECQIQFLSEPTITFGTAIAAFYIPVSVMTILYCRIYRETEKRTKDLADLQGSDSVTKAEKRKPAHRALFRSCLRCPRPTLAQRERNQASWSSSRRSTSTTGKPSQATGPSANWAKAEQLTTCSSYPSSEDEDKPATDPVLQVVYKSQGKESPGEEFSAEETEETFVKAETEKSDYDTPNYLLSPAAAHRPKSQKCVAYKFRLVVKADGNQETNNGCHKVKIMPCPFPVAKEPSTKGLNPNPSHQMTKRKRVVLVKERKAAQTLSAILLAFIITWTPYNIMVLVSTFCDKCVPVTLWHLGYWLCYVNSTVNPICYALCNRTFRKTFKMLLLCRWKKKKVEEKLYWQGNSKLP
human M4 receptor, sequence (P08173 whole entry): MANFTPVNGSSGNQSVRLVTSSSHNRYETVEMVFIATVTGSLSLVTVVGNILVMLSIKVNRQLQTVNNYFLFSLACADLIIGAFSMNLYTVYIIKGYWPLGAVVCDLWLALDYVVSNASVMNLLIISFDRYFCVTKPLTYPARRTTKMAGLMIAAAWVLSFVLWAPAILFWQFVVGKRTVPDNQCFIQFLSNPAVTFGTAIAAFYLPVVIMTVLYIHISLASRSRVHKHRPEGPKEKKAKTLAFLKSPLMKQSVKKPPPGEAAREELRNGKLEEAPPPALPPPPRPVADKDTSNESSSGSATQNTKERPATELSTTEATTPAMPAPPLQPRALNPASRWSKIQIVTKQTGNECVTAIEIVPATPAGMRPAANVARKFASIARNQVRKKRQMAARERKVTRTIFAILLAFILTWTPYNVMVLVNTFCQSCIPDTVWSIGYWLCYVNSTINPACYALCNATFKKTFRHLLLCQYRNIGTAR
human M2 receptor, sequence (P08172 whole entry): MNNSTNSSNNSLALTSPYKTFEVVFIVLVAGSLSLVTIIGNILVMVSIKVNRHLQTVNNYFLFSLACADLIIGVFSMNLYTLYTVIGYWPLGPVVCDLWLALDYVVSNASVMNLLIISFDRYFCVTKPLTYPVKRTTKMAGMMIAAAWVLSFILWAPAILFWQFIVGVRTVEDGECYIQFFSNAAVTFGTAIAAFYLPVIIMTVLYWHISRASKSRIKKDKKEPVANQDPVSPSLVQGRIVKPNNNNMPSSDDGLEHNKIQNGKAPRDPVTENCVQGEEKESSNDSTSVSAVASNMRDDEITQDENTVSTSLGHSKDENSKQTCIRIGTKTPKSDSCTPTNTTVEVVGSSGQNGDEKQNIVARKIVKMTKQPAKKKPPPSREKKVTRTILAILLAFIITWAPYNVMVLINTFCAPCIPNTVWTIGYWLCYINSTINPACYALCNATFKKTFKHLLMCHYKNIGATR
human M1 receptor, sequence (P11229 whole entry): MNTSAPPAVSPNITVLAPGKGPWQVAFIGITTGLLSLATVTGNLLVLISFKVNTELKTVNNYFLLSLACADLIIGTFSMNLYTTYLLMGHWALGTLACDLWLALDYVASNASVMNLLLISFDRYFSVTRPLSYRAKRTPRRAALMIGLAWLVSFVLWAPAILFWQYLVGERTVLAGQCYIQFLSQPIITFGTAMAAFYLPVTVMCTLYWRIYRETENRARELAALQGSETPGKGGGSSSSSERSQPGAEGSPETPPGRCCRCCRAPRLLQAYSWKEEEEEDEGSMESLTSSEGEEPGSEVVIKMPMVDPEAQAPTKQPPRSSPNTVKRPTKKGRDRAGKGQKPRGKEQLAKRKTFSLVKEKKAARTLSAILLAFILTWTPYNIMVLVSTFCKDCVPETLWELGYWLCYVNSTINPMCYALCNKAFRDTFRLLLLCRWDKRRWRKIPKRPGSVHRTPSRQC

| Ki (human M1 receptor; [1]) [nM] | Ki (human M2 receptor; [2]) [nM] | Ki (human M3 receptor) [nM] | Ki (human M4 receptor) [nM] | Ki (human M5 receptor; [3]) [nM] | SMILES | Ki (human M1 receptor) [nM] | Ki (human M2 receptor) [nM] | Ki (human M5 receptor) [nM] |
| --- | --- | --- | --- | --- | --- | --- | --- | --- |
| > 1000 | 100 to 1000 | > 1000 | < 10 | > 1000 | C[C@@H]1CN(c2ccc(C#N)cc2)C[C@H](C)N1C(=O)NCCC1CCN(Cc2ccccc2)CC1 [22-2] |  |  |  |
| > 1000 | 100 to 1000 | > 1000 | < 10 | > 1000 | C[C@@H]1CN(c2ccc(C#N)cc2F)C[C@H](C)N1C(=O)NCCC1CCN(Cc2ccccc2)CC1 [22-3] |  |  |  |
| > 1000 | 10 to 100 | > 1000 | < 10 | > 1000 | C[C@@H]1CN(c2ccc(C#N)c(F)c2)C[C@H](C)N1C(=O)NCCC1CCN(Cc2ccccc2)CC1 [22-4] |  |  |  |
| 100 to 1000 | 10 to 100 | 100 to 1000 | < 10 | 100 to 1000 | C[C@@H]1CN(c2cc(F)c(F)c(Cl)c2)C[C@H](C)N1C(=O)NCCC1CCN(Cc2ccccc2)CC1 [22-7] |  |  |  |
| 100 to 1000 | 10 to 100 | > 1000 | < 10 | > 1000 | C[C@@H]1CN(c2cnc(Cl)c(F)c2)C[C@H](C)N1C(=O)NCCC1CCN(Cc2ccccc2)CC1 [22-8] |  |  |  |
| 100 to 1000 | 10 to 100 | > 1000 | < 10 | > 1000 | C[C@@H]1CN(c2cc(F)c(C#N)c(F)c2)C[C@H](C)N1C(=O)NCCC1CCN(Cc2ccccc2)CC1 [22-9] |  |  |  |
| 100 to 1000 | 10 to 100 | > 1000 | < 10 | 100 to 1000 | C[C@@H]1CN(c2ccc(C#N)c(F)c2)CCN1C(=O)NCCC1CCN(Cc2ccccc2)CC1 [22-15] |  |  |  |
| 100 to 1000 | 10 to 100 | > 1000 | < 10 | > 1000 | COc1ccc(N2C[C@@H](C)N(C(=O)NCCC3CCN(Cc4ccccc4)CC3)[C@@H](C)C2)cc1C#N [22-24] |  |  |  |

More lines, now with the values behind:

| SMILES | Ki (human M1 receptor; [1]) [nM] | Ki (human M2 receptor; [2]) [nM] | Ki (human M3 receptor) [nM] | Ki (human M4 receptor) [nM] | Ki (human M5 receptor; [3]) [nM] | Ki (human M1 receptor) [nM] | Ki (human M2 receptor) [nM] | Ki (human M5 receptor) [nM] |
| --- | --- | --- | --- | --- | --- | --- | --- | --- |
| C[C@H]1CN(c2ncc(C(F)(F)F)cn2)CCC1C(=O)NCCC1CCN(Cc2ccccc2)CC1 (stereo partly drawn) [20-2, (3R)-N-[2-(1-benzylpiperidin-4-yl)ethyl]-3-methyl-1-[5-(trifluoromethyl)pyrimidin-2-yl]piperidine-4-carboxamide] | 10 to 100 | 10 to 100 | 10 to 100 | < 10 | 100 to 1000 |  |  |  |
| C[C@H]1CN(c2ncc(Cl)cn2)CCC1C(=O)NCCC1CCN(Cc2ccccc2)CC1 (stereo partly drawn) [20-3, (3R)-N-[2-(1-benzylpiperidin-4-yl)ethyl]-1-(5-chloropyrimidin-2-yl)-3-methylpiperidine-4-carboxamide] | 100 to 1000 | 100 to 1000 | 100 to 1000 | < 10 | > 1000 |  |  |  |
| C[C@@H]1CN(c2ncc(C#N)cn2)C[C@H](C)N1C(=O)NCCC1CCN(CC[Si](C)(C)C)CC1 [21-7] | 10 to 100 | < 10 | 10 to 100 | < 10 | 100 to 1000 |  |  |  |
| C[C@@H]1CN(c2ncc(F)cc2F)C[C@H](C)N1C(=O)NCCC1CCN(Cc2ccccc2)CC1 [22-5, (2R,6S)-N-[2-(1-benzylpiperidin-4-yl)ethyl]-4-(3,5-difluoropyridin-2-y1)-2,6-dimethylpiperazine-1-carboxamide] | 100 to 1000 | 10 to 100 | > 1000 | < 10 | 100 to 1000 |  |  |  |
| C[C@@H]1CN(c2cc(F)c(C#N)cc2F)CCN1C(=O)NCCC1CCN(Cc2ccccc2)CC1 [22-10] | > 1000 | 100 to 1000 | > 1000 | < 10 | > 1000 |  |  |  |
| C[C@@H]1CN(c2cc(F)c(C#N)c(F)c2)CCN1C(=O)NCCC1CCN(Cc2ccccc2)CC1 [22-12] | > 1000 | 10 to 100 | > 1000 | < 10 | 100 to 1000 |  |  |  |
| C[C@@H]1CN(c2cc(F)c(Cl)c(F)c2)CCN1C(=O)NCCC1CCN(Cc2ccccc2)CC1 [22-13] | 100 to 1000 | 10 to 100 | 100 to 1000 | < 10 | 100 to 1000 |  |  |  |
| C[C@@H]1CN(c2ccc(Cl)c(F)c2)CCN1C(=O)NCCC1CCN(Cc2ccccc2)CC1 [22-14] | 100 to 1000 | 10 to 100 | 100 to 1000 | < 10 | 100 to 1000 |  |  |  |
| C[C@@H]1CN(c2ccc(C#N)c(OC(F)(F)F)c2)CCN1C(=O)NCCC1CCN(Cc2ccccc2)CC1 [22-17] | 100 to 1000 | 10 to 100 | > 1000 | < 10 | 100 to 1000 |  |  |  |
| C[C@@H]1CN(c2cnc(C(F)(F)F)cn2)CCN1C(=O)NCCC1CCN(Cc2ccccc2)CC1 [22-22] | 100 to 1000 | 10 to 100 | > 1000 | < 10 | > 1000 |  |  |  |
| C[C@@H]1CN(c2cnc(C(F)(F)F)cn2)C[C@H](C)N1C(=O)NCCC1CCN(Cc2ccccc2)CC1 [22-23] | 100 to 1000 | < 10 | 100 to 1000 | < 10 | 100 to 1000 |  |  |  |
| O=C(NCCC1CCN(Cc2ccccc2)CC1)N1CCN(c2cnc(C(F)(F)F)cn2)CC1 [22-25, N-[2-(1-benzylpiperidin-4-yl)ethyl]-4-[5-(trifluoromethyl)pyrazin-2-yl]piperazine-1-carboxamide] | > 1000 | 10 to 100 | > 1000 | < 10 | > 1000 |  |  |  |
| C[C@@H]1CN(c2cc(F)nc(F)c2)CCN1C(=O)NCCC1CCN(Cc2ccccc2)CC1 [22-30] | 100 to 1000 | 10 to 100 | > 1000 | < 10 | > 1000 |  |  |  |
| C[C@@H]1CN(c2ccc(C#N)c(C(F)(F)F)c2)CCN1C(=O)NCCC1CCN(Cc2ccccc2)CC1 [22-31] |  |  | > 1000 | < 10 |  | 10 to 100 | 10 to 100 | 100 to 1000 |
| COc1cc(N2CCN(C(=O)NCCC3CCN(Cc4ccccc4)CC3)[C@H](C)C2)cc(F)c1C#N [22-32] | 100 to 1000 | 100 to 1000 | > 1000 | < 10 | 100 to 1000 |  |  |  |
| C[C@@H]1CN(c2ncc(C(F)(F)F)c(N)n2)C[C@@H](C)N1C(=O)NCCC1CCN(Cc2ccccc2)CC1 [26-1, (2R,6R)-4-[4-amino-5-(trifluoromethyl)pyrimidin-2-yl]-N-[2-(1-benzylpiperidin-4-yl)ethyl]-2,6-dimethylpiperazine-1-carboxamide] | 100 to 1000 | 10 to 100 | > 1000 | < 10 | > 1000 |  |  |  |
| C[C@@H]1CN(c2ncc(C#N)cn2)C[C@@H](C)N1C(=O)NCCC1CCN(Cc2ccccc2)CC1 [26-2] | > 1000 | 100 to 1000 | > 1000 | < 10 | > 1000 |  |  |  |
| C[C@@H]1CN(c2cnc(C(F)(F)F)cn2)C[C@@H](C)N1C(=O)NCCC1CCN(Cc2ccccc2)CC1 [26-4, (2R,6R)-N-[2-(1-benzylpiperidin-4-yl)ethyl]-2,6-dimethyl-4-[5-(trifluoromethyl)pyrazin-2-yl]piperazine-1-carboxamide] | > 1000 | 100 to 1000 | > 1000 | < 10 | > 1000 |  |  |  |
| C[C@@H]1CN(c2cnc(C(F)(F)F)nc2)C[C@@H](C)N1C(=O)NCCC1CCN(Cc2ccccc2)CC1 [26-6] | 10 to 100 | 10 to 100 | 100 to 1000 | < 10 | 100 to 1000 |  |  |  |
